“And” between values parts separate entries of the source, which are not always exact repeats. Equal entries are not always repeated. Inconclusive results and toxic doses are left out. No stated cut-off is given here; in the data, active means T/C of 150% or more; inactive means T/C below 125%.
Test system: L1210 leukemia ip in BDF1 mice, survival T/C
Test: NCI In Vivo Anticancer Drug Screen. Data for tumor model L1210 Leukemia (intraperitoneal) in B6D2F1 (BDF1) mice
Settings: endpoint: mean survival time, higher = longer survival
How it was run: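 Transplantable tumor model; survival measured in treated vs vehicle control mice. Value = treated/control.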

[1] = dose: 50.0 mg/kg/injection, schedule: Q01DX009 (ip), vehicle: Klucel (hydroxypropylcellulose) (HPC)
[2] = dose: 100.0 mg/kg/injection, schedule: Q01DX009 (ip), vehicle: Klucel (hydroxypropylcellulose) (HPC)
[3] = dose: 100.0 mg/kg/injection, schedule: Q04DX003 (ip), vehicle: Klucel (hydroxypropylcellulose) (HPC)
[4] = dose: 200.0 mg/kg/injection, schedule: Q01DX009 (ip), vehicle: Klucel (hydroxypropylcellulose) (HPC)
[5] = dose: 200.0 mg/kg/injection, schedule: Q04DX003 (ip), vehicle: Klucel (hydroxypropylcellulose) (HPC)
[6] = dose: 400.0 mg/kg/injection, schedule: Q01DX009 (ip), vehicle: Klucel (hydroxypropylcellulose) (HPC)

Measured: T/C

CCOC(=O)C(C(=O)OCC)C1c2ccccc2C(=NO)c2ccccc21 (centres undefined)
inactive: [1] 96 % of control | [2] 98 % of control | [3] 88 % of control | [4] 94 % of control | [5] 92 % of control

CC(C)OC(C(=O)O)c1ccccc1 (centres undefined)
inactive: dose: 100.0 mg/kg/injection, schedule: Q01DX001 (ip), vehicle: carboxymethylcellulose (CMC) 101 % of control | dose: 200.0 mg/kg/injection, schedule: Q01DX001 (ip), vehicle: carboxymethylcellulose (CMC) 101 % of control

CN(C)C(=O)Nc1cccc(OC(=O)Nc2ccccc2)c1
inactive: dose: 100.0 mg/kg/injection, schedule: Q04DX003 (ip), vehicle: saline with Tween-80 104 % of control | dose: 200.0 mg/kg/injection, schedule: Q04DX003 (ip), vehicle: saline with Tween-80 96 % of control | dose: 400.0 mg/kg/injection, schedule: Q04DX003 (ip), vehicle: saline with Tween-80 96 % of control

COc1ccc(C(=O)NC(=S)Nc2cccc([N+](=O)[O-])c2)cc1
inactive: dose: 100.0 mg/kg/injection, schedule: Q01DX009 (ip), vehicle: saline with Tween-80 95 % of control and 88 % of control | dose: 100.0 mg/kg/injection, schedule: Q04DX002 (ip), vehicle: saline 88 % of control | dose: 200.0 mg/kg/injection, schedule: Q01DX009 (ip), vehicle: saline with Tween-80 88 % of control and 89 % of control | dose: 200.0 mg/kg/injection, schedule: Q04DX002 (ip), vehicle: saline 91 % of control | dose: 400.0 mg/kg/injection, schedule: Q01DX009 (ip), vehicle: saline with Tween-80 103 % of control | dose: 400.0 mg/kg/injection, schedule: Q04DX002 (ip), vehicle: saline 98 % of control

O=NN1CCCCCC1C(=O)O (centres undefined)
inactive: dose: 100.0 mg/kg/injection, schedule: Q01DX001 (ip), vehicle: saline 108 % of control | dose: 200.0 mg/kg/injection, schedule: Q01DX001 (ip), vehicle: saline 102 % of control

COc1cc(OC)c(NC(=O)NC(C)(C)C)cc1Cl
inactive: [2] 93 % of control | [4] 95 % of control | [6] 98 % of control

Cc1ccc(S(=O)(=O)NCCCCC(N)C(=O)O)cc1 (centres undefined)
inactive: [2] 98 % of control | [3] 98 % of control | [4] 98 % of control | [5] 108 % of control | [6] 100 % of control | dose: 400.0 mg/kg/injection, schedule: Q04DX003 (ip), vehicle: Klucel (hydroxypropylcellulose) (HPC) 98 % of control

O=C1CCCC(c2ccccc2)C1 (centres undefined)
inactive: dose: 75.0 mg/kg/injection, schedule: Q01DX001 (ip), vehicle: other 95 % of control | dose: 150.0 mg/kg/injection, schedule: Q01DX001 (ip), vehicle: other 92 % of control | dose: 300.0 mg/kg/injection, schedule: Q01DX001 (ip), vehicle: other 95 % of control

CSc1ccnc2n[nH]nc12
inactive: dose: 100.0 mg/kg/injection, schedule: Q01DX001 (ip), vehicle: Klucel (hydroxypropylcellulose) (HPC) 102 % of control | [3] 94 % of control | dose: 200.0 mg/kg/injection, schedule: Q01DX001 (ip), vehicle: Klucel (hydroxypropylcellulose) (HPC) 104 % of control | [5] 101 % of control

O=S1(=O)CCC(N(N=C2CCCCC2)c2ccccc2)C1 (centres undefined)
inactive: [1] 95 % of control | [2] 98 % of control | [4] 106 % of control | [6] 95 % of control

Cn1cnc2nn[nH]c(=O)c21
inactive: [2] 94 % of control | dose: 100.0 mg/kg/injection, schedule: Q04DX003 (ip), vehicle: saline 92 % of control | [4] 96 % of control | dose: 200.0 mg/kg/injection, schedule: Q04DX003 (ip), vehicle: saline 92 % of control | [6] 90 % of control | dose: 400.0 mg/kg/injection, schedule: Q04DX003 (ip), vehicle: saline 95 % of control

[Cl][Hg][CH2]CC1CC=CCC1 (centres undefined)
inactive: dose: 3.13 mg/kg/injection, schedule: Q01DX009 (ip), vehicle: saline sonified 92 % of control | dose: 6.25 mg/kg/injection, schedule: Q01DX009 (ip), vehicle: saline sonified 94 % of control | dose: 6.25 mg/kg/injection, schedule: Q04DX003 (ip), vehicle: Klucel (hydroxypropylcellulose) (HPC) 98 % of control | dose: 12.5 mg/kg/injection, schedule: Q01DX009 (ip), vehicle: saline sonified 100 % of control | dose: 12.5 mg/kg/injection, schedule: Q04DX003 (ip), vehicle: Klucel (hydroxypropylcellulose) (HPC) 87 % of control

Reference: PubChem BioAssay AID248 (DTP/NCI, 2004)
